In patent publication US5306732A, “Tumor necrosis factor antagonist” (Xenova Limited, priority 1989, dated 1994):

How the values were obtained:
in vitro = assay type: cell-based; settings: mouse, l929 cells
Procedure: (§1) TNF causes lysis at low concentrations in sensitive cell lines. A cell line, known to be sensitive to TNF, was challenged with the cytokine in the presence of vinigrol and the reduction in cell mortality (as measured by cell staining) quantified in a manner similar to the method of Matthews, Immunology, 48, 321 (1982). A measurement of the cytotoxicity of vinigrol at the various concentrations was also carried out. L929 cells (4×10^4 /well) were incubated in RPMI 1640 medium containing 10ng/ml TNF, 0.05% lactalbumin hydrolysate and 1μg/ml actinomycin D plus the stated concentration of vinigrol overnight at […]. Cells were washed, fixed with methanol, stained with crystal violet and the cell density quantified by measuring absorbance at 590nm. The cytotoxicity of the samples was determined using the above method but excluding the TNF, in which experiments cell death would be due to the added vinigrol.

TNF-receptor = TNF-receptor binding assay: binding of [125 I]-TNF to intact HL 60 cells; settings: [125 I]-TNF 700pM, 2 hours at room temperature
Procedure: An in-vitro binding assay, based upon the measurement of binding of [^125 I]-TNF to intact cells, was used to measure the TNF/vinigrol interaction. The assay is similar to that of Imamura et al, J. Biol. Chem, 263, 10247-10253 (1988). More particularly, HL 60 cells (ATCC CCL 240) were grown in RPMI 1640 medium containing 10% foetal calf serum (FCS) and 1mM glutamine to a density of 1×10^6 /ml and harvested by centrifugation at 150g for 10 minutes. Cells were resuspended to a density of 2×10^7 /ml in RPMI 1640 containing 1% bovine serum albumin. [^125 I]-TNF was diluted to 2.1nM in the above buffer containing 0.6% sodium azide. Non-specific binding was estimated by measuring the binding in the presence of a 100 fold excess of unlabelled TNF. [^125 I]-TNF, final concentration 700pM, vinigrol at the stated concentration and cells at a density of 5×10^6 /ml were incubated in the above buffer for 2 hours at room temperature. The reaction was terminated by filtering onto a LKB filter mat (1205-401) followed by extensive washing with phosphate-buffered saline: The filter mat was counted for radioactivity to determine the quantity of bound [^125 I)-TNF.

L929 cells = experiment: cells; assay type: cell-based; settings: Mus musculus, L929, read-out: Inhibition of TNF-induced cytotoxicity
Procedure: as §1

With CC(C)C1CCC(C)C2CCC(C)C3(O)C1C=C(CO)C(O)C23 (stereo not drawn) [Vinigrol] the cytotoxicity at 3.1 µM (in vitro) was 30%, the cytotoxicity at 15.5 µM (in vitro) was 0% and the cytotoxicity at 77.5 µM (in vitro) was 7%. For the same compound, the “Inhibition of [125 I]-TNF-binding” value (TNF-receptor; vinigrol 3.1 μM) was 8%, the “Inhibition of [125 I]-TNF-binding” value (TNF-receptor; vinigrol 31 μM) was 12% and the “Inhibition of [125 I]-TNF-binding” value (TNF-receptor; vinigrol 310 μM) was 100%. It also gave an inhibition at 3.1 µM (L929 cells) of 91%, an inhibition at 15.5 µM (L929 cells) of 100% and an inhibition at 77.5 µM (L929 cells) of 100%.
